{
  "source": "ChEMBL document CHEMBL4270560",
  "about": "“Novel curcumin analogue hybrids: Synthesis and anticancer activity” (Eur J Med Chem, 2018)",
  "key": {"U-87 MG": {"tested_on": "U-87 MG", "assay": "Antiproliferative activity against human U87 cells after 48 hrs by MTT assay", "format": "functional, cell-based, U-87MG ATCC"}, "SMMC-7721": {"tested_on": "SMMC-7721", "assay": "Antiproliferative activity against human SMMC7721 cells after 48 hrs by MTT assay", "format": "functional, cell-based", "settings": "SMMC-7721, 48 h"}, "MGC-803": {"tested_on": "MGC-803", "assay": "Antiproliferative activity against human MGC803 cells after 48 hrs by MTT assay", "format": "functional, cell-based", "settings": "MGC-803, 48 h"}, "SGC-7901 [1]": {"tested_on": "SGC-7901", "assay": "Antiproliferative activity against human SGC7901 cells after 48 hrs by MTT assay", "format": "functional, cell-based", "settings": "SGC-7901, 48 h"}, "SGC-7901 [2]": {"tested_on": "SGC-7901", "assay": "Induction of mitochondrial membrane depolarization in human SGC7901 cells assessed as cells with mitochondrial membrane potential loss after 48 hrs by JC-1 staining based flow cytometric analysis (reference value: 9.29%)", "format": "functional"}, "SGC-7901 [3]": {"tested_on": "SGC-7901", "assay": "Induction of mitochondrial membrane depolarization in human SGC7901 cells assessed as cells with intact mitochondrial membrane potential after 48 hrs by JC-1 staining based flow cytometric analysis (reference value: 87.3%)", "format": "functional"}},
  "data": [
    {"smiles": "COc1cccc2c1C(=O)c1c(O)c3c(c(O)c1C2=O)C[C@@](O)(C(=O)CO)C[C@@H]3O[C@H]1C[C@H](N)[C@H](O)[C@H](C)O1", "note": "[DOXORUBICIN]", "values": [
      {"measurement": "IC50", "setting": "U-87 MG", "value": 0.48, "unit": "µM"},
      {"measurement": "IC50", "setting": "SMMC-7721", "value": 0.73, "unit": "µM"},
      {"measurement": "IC50", "setting": "MGC-803", "value": 0.4, "unit": "µM"},
      {"measurement": "IC50", "setting": "SGC-7901 [1]", "value": 0.87, "unit": "µM"}
    ]},
    {"smiles": "COc1cc(OC)c2c(=O)c(OCCCOc3ccccc3/C=C/C(=O)/C=C/c3cccc([N+](=O)[O-])c3)c(-c3cc(OC)c(OC)c(OC)c3)oc2c1", "values": [
      {"measurement": "IC50", "setting": "U-87 MG", "value": 7.92, "unit": "µM"},
      {"measurement": "IC50", "setting": "SMMC-7721", "value": 9.2, "unit": "µM"},
      {"measurement": "IC50", "setting": "MGC-803", "value": 5.73, "unit": "µM"},
      {"measurement": "IC50", "setting": "SGC-7901 [1]", "value": 5.4, "unit": "µM"}
    ]},
    {"smiles": "N#CC(C#N)=NNc1cccc(Cl)c1", "note": "[CARBONYL CYANIDE M-CHLOROPHENYLHYDRAZONE]", "values": [
      {"measurement": "Activity", "setting": "SGC-7901 [2]", "value": 64.6, "unit": "%"},
      {"measurement": "Activity", "setting": "SGC-7901 [3]", "value": 27.7, "unit": "%"}
    ]},
    {"smiles": "COc1cc(OC)c2c(=O)c(OCCCCOc3ccccc3/C=C/C(=O)/C=C/c3ccc(Cl)cc3)c(-c3cc(OC)c(OC)c(OC)c3)oc2c1", "values": [
      {"measurement": "IC50", "setting": "U-87 MG", "value": 21.1, "unit": "µM"},
      {"measurement": "IC50", "setting": "SMMC-7721", "value": 41.7, "unit": "µM"},
      {"measurement": "IC50", "setting": "MGC-803", "value": 18.6, "unit": "µM"},
      {"measurement": "IC50", "setting": "SGC-7901 [1]", "value": 9.15, "unit": "µM"}
    ]},
    {"smiles": "O=C(/C=C/c1ccc(Oc2cc(=O)oc3ccccc23)cc1)/C=C/c1cccnc1", "values": [
      {"measurement": "IC50", "setting": "U-87 MG", "value": 37, "unit": "µM"},
      {"measurement": "IC50", "setting": "SMMC-7721", "value": 33.4, "unit": "µM"},
      {"measurement": "IC50", "setting": "MGC-803", "value": 24.5, "unit": "µM"},
      {"measurement": "IC50", "setting": "SGC-7901 [1]", "value": 17.4, "unit": "µM"}
    ]},
    {"smiles": "COc1cc(OC)c2c(=O)c(OCCCCOc3ccccc3/C=C/C(=O)/C=C/c3cccc([N+](=O)[O-])c3)c(-c3cc(OC)c(OC)c(OC)c3)oc2c1", "values": [
      {"measurement": "IC50", "setting": "U-87 MG", "value": 10, "unit": "µM"},
      {"measurement": "IC50", "setting": "SMMC-7721", "value": 7.31, "unit": "µM"},
      {"measurement": "IC50", "setting": "MGC-803", "value": 5.06, "unit": "µM"},
      {"measurement": "IC50", "setting": "SGC-7901 [1]", "value": 4.03, "unit": "µM"}
    ]},
    {"smiles": "O=C(/C=C/c1ccc(Oc2cc(=O)oc3ccccc23)cc1)/C=C/c1ccccn1", "values": [
      {"measurement": "IC50", "setting": "U-87 MG", "value": 50.8, "unit": "µM"},
      {"measurement": "IC50", "setting": "SMMC-7721", "value": 35.4, "unit": "µM"},
      {"measurement": "IC50", "setting": "MGC-803", "value": 19.4, "unit": "µM"},
      {"measurement": "IC50", "setting": "SGC-7901 [1]", "value": 25.2, "unit": "µM"}
    ]},
    {"smiles": "COc1cc(OC)c2c(=O)c(OCCCCOc3ccccc3/C=C/C(=O)/C=C/c3ccco3)c(-c3cc(OC)c(OC)c(OC)c3)oc2c1", "values": [
      {"measurement": "IC50", "setting": "U-87 MG", "value": 10.7, "unit": "µM"},
      {"measurement": "IC50", "setting": "SMMC-7721", "value": 8.48, "unit": "µM"},
      {"measurement": "IC50", "setting": "MGC-803", "value": 7.9, "unit": "µM"},
      {"measurement": "IC50", "setting": "SGC-7901 [1]", "value": 8.98, "unit": "µM"}
    ]},
    {"smiles": "COc1cc(OC)c2c(=O)c(OCCCCOc3ccc(/C=C/C(=O)/C=C/c4ccccn4)cc3)c(-c3cc(OC)c(OC)c(OC)c3)oc2c1", "values": [
      {"measurement": "IC50", "setting": "U-87 MG", "value": 4.69, "unit": "µM"},
      {"measurement": "IC50", "setting": "SMMC-7721", "value": 1.69, "unit": "µM"},
      {"measurement": "IC50", "setting": "MGC-803", "value": 1.96, "unit": "µM"},
      {"measurement": "IC50", "setting": "SGC-7901 [1]", "value": 2.41, "unit": "µM"}
    ]},
    {"smiles": "COc1cc(OC)c2c(=O)c(OCCCCOc3ccc(/C=C/C(=O)/C=C/c4scnc4C)cc3)c(-c3cc(OC)c(OC)c(OC)c3)oc2c1", "values": [
      {"measurement": "IC50", "setting": "U-87 MG", "value": 58.7, "unit": "µM"},
      {"measurement": "IC50", "setting": "SMMC-7721", "value": 65, "unit": "µM"},
      {"measurement": "IC50", "setting": "MGC-803", "value": 54.6, "unit": "µM"},
      {"measurement": "IC50", "setting": "SGC-7901 [1]", "value": 42, "unit": "µM"}
    ]},
    {"smiles": "COc1ccc(/C=C/C(=O)/C=C/c2ccc(Oc3cc(=O)oc4ccccc34)cc2)cc1OC", "values": [
      {"measurement": "IC50", "setting": "MGC-803", "value": 49.4, "unit": "µM"},
      {"measurement": "IC50", "setting": "SGC-7901 [1]", "value": 49.4, "unit": "µM"}
    ]},
    {"smiles": "COc1cc(OC)c2c(=O)c(OCCCCOc3ccccc3/C=C/C(=O)/C=C/c3cccs3)c(-c3cc(OC)c(OC)c(OC)c3)oc2c1", "values": [
      {"measurement": "IC50", "setting": "U-87 MG", "value": 21.1, "unit": "µM"},
      {"measurement": "IC50", "setting": "SMMC-7721", "value": 14.9, "unit": "µM"},
      {"measurement": "IC50", "setting": "MGC-803", "value": 20.5, "unit": "µM"},
      {"measurement": "IC50", "setting": "SGC-7901 [1]", "value": 26.5, "unit": "µM"}
    ]},
    {"smiles": "O=C(/C=C/c1ccc(Cl)cc1)/C=C/c1ccc(Oc2cc(=O)oc3ccccc23)cc1", "values": [
      {"measurement": "IC50", "setting": "MGC-803", "value": 55.2, "unit": "µM"},
      {"measurement": "IC50", "setting": "SGC-7901 [1]", "value": 48.3, "unit": "µM"}
    ]},
    {"smiles": "COc1cc(OC)c2c(=O)c(OCCCOc3ccc(/C=C/C(=O)/C=C/c4scnc4C)cc3)c(-c3cc(OC)c(OC)c(OC)c3)oc2c1", "values": [
      {"measurement": "IC50", "setting": "U-87 MG", "value": 40.4, "unit": "µM"},
      {"measurement": "IC50", "setting": "SMMC-7721", "value": 34.3, "unit": "µM"},
      {"measurement": "IC50", "setting": "MGC-803", "value": 31.7, "unit": "µM"},
      {"measurement": "IC50", "setting": "SGC-7901 [1]", "value": 49.4, "unit": "µM"}
    ]},
    {"smiles": "COc1cc(OC)c2c(=O)c(OCCCOc3ccccc3/C=C/C(=O)/C=C/c3scnc3C)c(-c3cc(OC)c(OC)c(OC)c3)oc2c1", "values": [
      {"measurement": "IC50", "setting": "U-87 MG", "value": 9.63, "unit": "µM"},
      {"measurement": "IC50", "setting": "SMMC-7721", "value": 7.21, "unit": "µM"},
      {"measurement": "IC50", "setting": "MGC-803", "value": 5.57, "unit": "µM"},
      {"measurement": "IC50", "setting": "SGC-7901 [1]", "value": 4.78, "unit": "µM"}
    ]}
  ]
}
